Assay results published in patent US20260335293A1, “USE OF NOVEL COMPOUND FOR TREATING INTRACTABLE DISEASES” (YJ CERAPEUTICS INC., priority 2023, published 2026).

Assays:
Format in all cases: in vivo, Sprague-Dawley rats
[1] = tested on: neuropathic pain (mechanical allodynia) in SCI, LSS and SNI animal models; test: Mechanical allodynia (von Frey, 50% threshold) in SCI, LSS and SNI neuropathic pain models
Procedure: To be used as a central nerve injury animal model, a traumatic spinal cord injury (SCI) model was prepared (FIG. 1A). Specifically, 230 to 250 g of male adult Sprague-Dawley rats were anesthetized by intraperitoneal injection of chloral hydrate (500 mg/kg), and then the back and neck regions were shaved, and the spinal cord under the back and neck regions was exposed without damaging the dura mater, and a laminectomy was performed at T9 to T10 levels. To stabilize the spine, the spinous processes of T8 and T11 were fixed, and the spine was damaged by free-falling a 10 g weight from a height of 25 mm using an NYU impactor onto the back surface of the exposed spinal cord and then the rats were left in a temperature and humidity-controlled chamber overnight while covering the muscles and skin. After surgery, the rats were subcutaneously injected with a supplement solution (5 ml, lactated ringer) and injected with antibiotics (gentamicin, 5 mg/kg, intramuscular injection) once daily for 5 days. The body weight, remaining food, and the weight of water were confirmed and recorded for all animals, and the bladder was emptied twice daily by passive bladder massage until reflex micturition was established. At this time, a Sham group was a group that was subjected to only laminectomy without damage.
To be used as a peripheral nerve injury animal model, a lumbar spinal stenosis (LSS) model was prepared (FIG. 1B). Specifically, 260 to 280 g of adult male Sprague-Dawley rats were anesthetized with intraperitoneal injection of chloral hydrate (500 mg/kg), the back region was shaved, and then the spinal plate was exposed at L4 to S2 levels. After removing the ligamentous section between L4 and L5, a trapezoidal silicone block (1.00 mm long×1.3 to 1.2 mm wide×1.0 mm high) was inserted into the epidural space below the L5 and L6 spinal plates without damaging the dural sac. At this time, a Sham group was a group that was subjected to only posterior […] on the animal without inserting a silicone block.
(§1) To be used as a peripheral nerve injury animal model, a sciatic nerve injury (SNI) model was prepared (FIG. 1C). Specifically, 200 to 220 g of male adult Sprague-Dawley rats were anesthetized by intraperitoneal injection of chloral hydrate (500 mg/kg), and then three terminal branches (tibial, common peroneal, and sural nerves) of the right sciatic nerve were approached, and the tibia nerve and the peroneal nerve were tightly ligated with 4-0 silk, and neurectomy was performed at a distal 3 mm position of the ligation site. At this time, a Sham group was a group that exposed only the sciatic nerve without damage.
In order to confirm a neuropathic pain inhibitory effect of YJ102 (Chemical Formula 1), a compound of the present disclosure, in the three nerve injury animal models prepared in Example 1 above, rats having pain on week 3 (SNI model) or week 4 (SCI model and LSS model) after surgery were selected and administered orally (p.o.) at 10 mg/kg or 20 mg/kg of YJ102 dissolved in a solution of DMSO, methyl pyrrolidinone, and water (1:1.5:1), or intraperitoneally injected (i.p. injection) at 1, 2, or 5 mg/kg of YJ102. In a positive control group, gabapentin or pregabalin dissolved in saline was intraperitoneally injected at a concentration of 5 mg/kg, and in a Vehicle group, the same amount of a solution of DMSO, methyl pyrrolidinone, and water was administered. Thereafter, in order to measure mechanical allodynia, the rats were located at the bottom of a transparent plastic box (10 cm×10 cm) on top of a wire mesh (3 mm×3 mm) and subjected to an adaptation period for approximately 20 minutes. Von-Frey filaments were applied to the soles of both paws and used with stiff nylon von-Frey monofilament series ([…], Stoelting, WoodDale, IL, USA; equivalent in grams to 0.4, 0.6, 1.0, 2.0, 4.0, 6.0, 8.0 and 15.0) with logarithmic increases in tactile (mechanical) sensitivity. […]

mTOR pathway = mTOR pathway in SNI model, Western blot; conditions: 4 weeks after nerve injury
Procedure: FIG. 5B is a diagram showing results of analyzing the expression of factors associated with a mTOR signaling pathway in an inflammation-inhibiting mechanism in an SNI animal model by Western blot.
To determine through which signaling pathway YJ102 inhibited a neuroinflammatory response, there was analyzed increased expression and activation of histone demethylase JMJD3 and expression changes of factors associated with JAK/STAT3 pathway, mTOR pathway, and TRPM7-mediated pathway, which were known as important regulatory mechanisms and epigenetic regulators mediating the neuroinflammatory response, in the tissues of the SNI animal model 4 weeks after nerve injury.

[2] = tested on: inflammatory factors (IL-6, iNOS, COX-2, IL-1β, TNF-α, MIP-1α, MIP-1β, MIP-2α, Gro-α, and MCP-1); test: Inflammatory factor expression in spinal cord of SNI model, RT-PCR and Western blot; conditions: ipsilateral L4-5 spinal cord
Procedure: as §1
It was known that when neuropathic pain occurred, the activation of microglia and astrocytes expressed inflammatory factors including cytokines and chemokines to cause excessive excitation of surrounding neurons. Therefore, in order to confirm changes in inflammatory factor expression by YJ102 administration in the SNI animal model 4 weeks after nerve injury, RNA and protein were extracted from L4-5 spinal cord tissue and RT-PCR and Western blot analysis were performed. Specifically, for RT-PCR analysis, RNA was isolated from spinal cord tissue sections using a TRIZOL Reagent (Invitrogen) according to a manual, and 20 μl of the total mixture was prepared by using 1 μg of total RNA, and cDNA was synthesized using MMLV reverse transcriptase (Invitrogen). […]

[3] = p.o. 10 mg/kg or 20 mg/kg, all three models (SCI, LSS, SNI)

CCc1ccc(N(C(=O)COC)c2nc3cc(Cl)ccc3o2)cc1 [YJ102]
duration of analgesic effect relative to existing drugs (gabapentin, pregabalin) ([1]; i.p.): more than three times longer | analgesic effect relative to gabapentin or pregabalin ([1]; i.p., at the same concentration as gabapentin or pregabalin): more than twice as high | duration of analgesic effect [1, 3]: ≥ 4 h | mechanical allodynia threshold increased from (time after administration) [1, 3]: 30 min | activity of S6 (mTOR pathway): inhibiting the activity | activity of p70S6kinase (mTOR pathway): inhibiting the activity | expression of inflammatory factors ([2]; RT-PCR): significantly reduced | expression of inflammatory factors ([2]; Western blot): significantly reduced
